Experimental data as given in US20060070135A1, “Compositions and methods for inhibiting the enzymatic activity of PTP-1B” (priority 1998, published 2006).

Columns and labels:
[1] = test system: phosphorylation level of the insulin receptor in CHO-IR cells (endogenous PTP-1B); assay: Intact cell assay: insulin receptor phosphorylation level in CHO-IR cells treated with PTP-1B inhibitors and stimulated with insulin; type: cell-based, Chinese hamster; details: 5 nM insulin; for Intact cell assay: fold-increase over control / fold induction at 50 µM: at 50 μM
Method: The phosphorylation level of the insulin receptor (IR) was determined in CHO-IR cells (Chinese hamster ovarian cells expressing endogenous PTP-1B and overexpressing human insulin receptor; ATCC, Manassas, Va.) treated with PTP-1B inhibitors and stimulated with 5 nM insulin. CHO-IR cells were grown in F12 media, 10% fetal bovine serum (FBS), and 1% penstrep. All experiments were conducted within the first 12 passages after thawing cells.
On the first day of the experiment, CHO-IR cells were placed in 6-well plates (1/10 of 100 mm confluent plate). Once cells were confluent (˜24 hours later), the cells were starved overnight in 0% fetal bovine serum F12 medium. After the overnight incubation, the medium was changed to fresh 0% F12 30 minutes prior to the addition of inhibitor. A 1 mL aliquote of media containing inhibitor (10, 25 or 50 μM), with a final concentration of 0.1% DMSO, was added to each well. The inhibitors were added directly to the serum-free media, shortly before using them (i.e., the inhibitor was added to cells within 10 minutes of dilution). Cells were incubated with inhibitors for 2-4 hours. A 250 μL aliquote of insulin (human insulin, HUMULIN™ was subsequently added to each well at a final concentration of 5 nM. The cells were incubated for an additional 10 minutes and washed 2× with cold phosphate-buffered saline (PBS). Proteins were isolated with modified RIPA buffer (200 μL/well) containing protease inhibitor (COMPLETE™), NaF, and Na3VO4.
Protein quantification was conducted using Bradford reagent (BIO-RAD, Hercules, Calif.). Proteins were separated in an 8% SDS-PAGE gel with 25-40 μg protein per well. The proteins were subsequently transferred to PDVF membrane for western blot analysis. Membranes were blocked for 1 hour in either 1% bovine serum albumin for the 4G10 antibody or 5% milk for other antibodies. Membranes were incubated overnight at 4° C. with 4G10 or phospho-antibody, washed 4×5 minutes to remove the primary antibody, incubated 1 hour with secondary antibody, washed an additional 4×5 minutes, and visualized using an ECL detection kit.
Membranes were subsequently stripped, blocked for 1 hour and probed with anti-P-IR, anti-IR, anti-p-AKT, and anti-AKT primary antibodies. Primary antibodies were anti-IR pY1162pY1163 (human) polyclonal antibody and anti-1-IR polyclonal antibody. The blots were washed 4×5 minutes to remove primary antibody, incubated 1 hour in anti-rabbit HRP secondary antibody, washed an additional 4×5 minutes and visualized using ECL.
Bands visualized on the blots were quantified using NIH Image 1.62. Quantification was conducted for at least three experiments.

[2] = target: Insulin receptor (mouse, endogenous; β-subunit immunoprecipitated from tissue membrane fractions) (mouse) (UniProt P15208); assay: cell-based or functional assay
Chain of UniProt P15208 (P15208 753-1372 limits assumed): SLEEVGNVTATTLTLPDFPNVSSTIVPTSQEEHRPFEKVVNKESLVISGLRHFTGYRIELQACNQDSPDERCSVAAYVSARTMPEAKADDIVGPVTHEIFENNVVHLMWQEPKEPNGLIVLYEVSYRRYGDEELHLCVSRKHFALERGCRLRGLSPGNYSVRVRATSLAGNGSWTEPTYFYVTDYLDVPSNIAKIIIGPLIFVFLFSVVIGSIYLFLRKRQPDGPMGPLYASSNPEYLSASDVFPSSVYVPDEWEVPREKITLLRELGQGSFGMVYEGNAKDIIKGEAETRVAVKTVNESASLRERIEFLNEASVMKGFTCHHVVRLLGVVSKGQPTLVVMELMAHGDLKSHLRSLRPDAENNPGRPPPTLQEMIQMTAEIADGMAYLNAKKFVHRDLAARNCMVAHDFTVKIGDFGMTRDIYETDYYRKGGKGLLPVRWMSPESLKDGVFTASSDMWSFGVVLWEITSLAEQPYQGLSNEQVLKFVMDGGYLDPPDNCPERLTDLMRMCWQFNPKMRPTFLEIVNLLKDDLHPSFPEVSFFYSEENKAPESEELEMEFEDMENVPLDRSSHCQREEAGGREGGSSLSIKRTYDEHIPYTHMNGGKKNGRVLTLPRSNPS

[3] = Cricetulus griseus, read-out: Intact cell assay: fold-increase over control

Molecule | Intact cell assay: fold-increase over control [1] | further results
CCc1nnc(NS(=O)(=O)c2ccc(NC(=S)NC(=O)/C=C/c3ccc(C(C)C)cc3)cc2)s1 [compound 14, N-(5-ethyl-[1,3,4]thiadiazol-2-yl)-4-{3-[3-(4-isopropylphenyl)-acryloyl]-thioureido}-benzenesulfonamide] | Inactive at 50 μM | 
Protein tyrosine phosphatase-1B (mouse, endogenous) (from UniProt P35821 1-432) |  | insulin receptor tyrosine phosphorylation in liver of wild-type mice, 5 minutes against 1 minute after insulin injection [2]: 50%
O=[N+]([O-])c1ccc(O)c(/C=N/N=c2/[nH]c3nonc3nc2Nc2ccc(I)cc2)c1 [compound 20, 2-{[6-(4-iodophenylamino)-4H-[1,2,5]oxadiazolo[3,4-b]pyrazin-5-ylidene]-hydrazonomethyl}-4-nitrophenol] | Inactive at 50 μM | 
O=C(/C=C/c1ccco1)Nc1ccc(C(=O)O)cc1NC(=O)/C=C/c1ccco1 [compound 16, 3,4-bis-(3-furan-2-ylacryloylamino)-benzoic acid] | Inactive at 50 μM | 
COc1ccc(-c2csc(N3N=C(c4ccc([N+](=O)[O-])cc4)C(=NNc4ccc(S(N)(=O)=O)cc4)C3=O)n2)cc1 [compound 15, 4-{N′-[1-[4-(4-methoxyphenyl)-thiazol-2-yl]-3-(4-nitrophenyl)-5-oxo-1,5-dihydropyrazol-4-ylidene]-hydrazino}-benzenesulfonamide] | Inactive at 50 μM | 
COc1cc(/C=C2/SC(=S)N(c3cccc(Cl)c3)C2=O)cc([N+](=O)[O-])c1O [compound 22, 3-(3-chlorophenyl)-5-(4-hydroxy-3-methoxy-5-nitrobenzylidene)-2-thioxothiazolidin-4-one] |  | fold induction at 25 µM ([1]; Cricetulus griseus, at 25 μM, read-out: Intact cell assay: fold-increase over control): 2.7; fold induction at 50 µM [1, 3]: 4.1
N#CC(C#N)=C1CSc2sc(=S)sc2SC1 [compound 13, 2-(2-thioxo-[1,3]dithiolo[4,5-b][1,4]dithiepin-6-ylidene)malononitrile] | Inactive at 50 μM | 
O=C1C=CC(=O)c2c(O)cccc21 [compound 21, 5-hydroxy-[1,4]-naphthoquinone] |  | fold induction at 50 µM [1, 3]: 0.87
Protein tyrosine phosphatase-1B (mouse, endogenous) (from UniProt P35821 1-432) (enzyme) |  | insulin receptor phosphorylation level in muscle after insulin challenge, PTP-1B (+/-) against wild-type mice on high fat, high carbohydrate diet [2]: 2 fold; insulin receptor phosphorylation level in muscle after insulin challenge, PTP-1B (-/-) against wild-type mice on high fat, high carbohydrate diet [2]: 4 fold; phosphotyrosine level of the insulin receptor in muscle of insulin treated PTP-1B null mice compared to wild-type (immunoprecipitation, anti-phosphotyrosine immunoblot, densitometry) [2]: 40%
O=C(O)c1ccc(N2C(=O)/C(=C/c3ccc(-c4ccc([N+](=O)[O-])cc4)o3)C=C2c2ccccc2)cc1 [compound 17, 4-{3-[5-(4-nitrophenyl)-furan-2-ylmethylene]-2-oxo-5-phenyl-2,3-dihydropyrrol-1-yl}-benzoic acid] | Inactive at 50 μM | 
Nc1nnnn1/N=C/c1cc(I)cc(I)c1O [compound 19, 2-[(5-aminotetrazol-1-ylimino)-methyl]-4,6-diiodophenol] | Inactive at 50 μM | 
Nc1c(S(=O)(=O)O)cc(S(=O)(=O)O)c2cccc(O)c12 [compound 11, 4-amino-5-hydroxynaphthalene-1,3-disulfonic acid] | Inactive at 50 μM | 
